The subject of one experiment is mTOR. Description: Phospho-4E-BP1 (mTOR phosphorylation target) in HeLa cells. The experiment is classed as cell-based. To be noted: including those expressing myr-Akt1. An excerpt: We investigated whether Akt inhibits autophagy by directly regulating the core autophagy machinery independently of mTOR. Expression of constitutively active myristoylated (5) and tagged Akt1 (Flag-tagged myr-Akt) in HeLa cells inhibited autophagy during growth in normal medium, in response to serum and amino acid starvation (a physiological inducer of autophagy), in response to treatment with an ATP-competitive inhibitor of mTOR, Torin1 (6), and in response to both starvation and Torin1 treatment. In all conditions, cells expressing myr-Akt1 had decreased numbers of puncta upon transfection with a fusion protein of green fluorescent protein with LC3 (GFP-LC3), a fluorescent marker of autophagosomes; increased amounts of p62 (a substrate that is degraded by autophagy); and increased amounts of the cytosolic non-lipidated form of LC3, LC3-I, and of total LC3 (7). Amounts of phospho-4E-BP1, a phosphorylation target of mTOR, were decreased in Torin1-treated cells, including those expressing myr-Akt1.

The test system of the next experiment is HeLa cells. Description: Autophagy induction in HeLa cells transfected with empty vector or WT EGFR. The experiment is classed as cell-based. An excerpt:
We investigated the effects of active EGFR mutants that constitutively bind Beclin 1 on autophagy. […] In cells transfected with the active EGFR mutants, L858R or 4746-750, starvation and Torin1 induced lower levels of autophagy. […] Thus, active EGFR mutants suppress autophagy in a manner that is partially independent of mTOR.

Experiment [1] deals with Beclin 1 S295 / S234 phosphorylation. Description: Phosphorylation of endogenous Beclin 1 S295 and S234 in HeLa cells expressing myr-Akt1. The experiment is classed as cell-based. An excerpt:
(§1) We examined whether autophagy execution proteins could be targets of Akt. We focused on Beclin 1 because of its role in autophagy and tumor suppression (4).

Another experiment deals with T1, GST-Akt1 (Homo sapiens, UniProt P31749).
T1 construct: GST
T1 sequence (P31749 whole entry): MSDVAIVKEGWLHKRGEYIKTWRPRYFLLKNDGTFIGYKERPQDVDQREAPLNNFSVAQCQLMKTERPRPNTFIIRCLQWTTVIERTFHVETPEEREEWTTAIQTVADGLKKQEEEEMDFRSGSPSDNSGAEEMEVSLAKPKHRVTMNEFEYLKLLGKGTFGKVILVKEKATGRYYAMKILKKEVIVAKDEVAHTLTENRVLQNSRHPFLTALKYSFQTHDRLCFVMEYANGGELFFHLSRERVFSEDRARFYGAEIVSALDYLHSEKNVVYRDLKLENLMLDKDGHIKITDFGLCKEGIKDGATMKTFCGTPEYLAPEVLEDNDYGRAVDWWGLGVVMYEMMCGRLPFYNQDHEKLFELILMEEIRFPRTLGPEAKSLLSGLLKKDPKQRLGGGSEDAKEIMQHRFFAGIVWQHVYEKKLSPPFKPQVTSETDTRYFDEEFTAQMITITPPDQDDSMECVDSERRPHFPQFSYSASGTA
Description: In vitro phosphorylation of Beclin 1 S295 by GST-Akt1. The experiment is classed as biochemical. Conditions: in vitro kinase reaction.
From the text: as §1

The subject of experiment [2] is myr-Akt1-expressing Rat2 cell tumors. Description: Tumors of myr-Akt1-expressing Rat2 cells in NOD SCID mice. The experiment is classed as in vivo. To be noted: co-expressed with myr-Akt1 in Rat2 cells. The source says: To examine the role of Akt-mediated Beclin 1 phosphorylation in Akt-driven tumorigenesis, we transduced Rat2 fibroblasts with myr-Akt1 (which transforms rat fibroblasts (15)) and either wild-type Beclin 1 or Beclin 1 phosphorylation site mutants. Myr-Akt1 suppressed autophagy in Rat2 fibroblasts, reduced co-immunoprecipitation of Class III PI3K Vps34 with Beclin 1, and decreased Beclin 1-associated lipid kinase activity. […] Expression of myr-Akt1 had minimal effects on the interaction of Beclin 1 AA and Vps34 or on the amounts of Beclin 1 AA-associated Vps34 activity. Thus, myr-Akt1 suppresses Beclin 1-associated Vps34 activity and autophagy in a manner that is partially reversed by a Beclin 1 mutant resistant to Akt-mediated phosphorylation.
All myr-Akt1-expressing Rat2 cells formed tumors in immunodeficient NOD SCID® mice, but tumor growth rate and tumor mass upon necropsy were less for cells expressing Beclin 1 AA than for cells expressing wild-type Beclin 1 or myr-Akt1 alone. Tumors expressing myr-Akt1 alone had numerous cells displaying p62 immunoreactivity (indicating autophagy suppression) whereas very few p62 immunoreactive cells were detected in tumors from cells expressing both myr-Akt1 and Beclin 1 AA. […] Tumors expressing active Akt alone or with Beclin 1 had higher mean mitotic counts (n=8.39; n=8.37, respectively) than tumors expressing myr-Akt1 and Beclin 1 AA (n=3.67) (P<0.0001). They also had increased Ki-67 labeling, and decreased TUNEL staining. Thus, the expression of a mutant of Beclin 1 that cannot be phosphorylated by Akt increases tumor cell autophagy, decreases tumor growth rate and size, decreases tumor cellular proliferation, and increases tumor cell death.

Another experiment has as its system HCC827 cells. Description: Autophagy (GFP-LC3 puncta, LC3-II, p62) in HCC827 NSCLC cells. The experiment is classed as cell-based, human. An excerpt:
(§2) We investigated whether this mechanism underlies EGFR regulation of autophagy in NSCLC cells with activating mutations in EGFR. We used two NSCLC lines: HCC827 cells have the Δ746-750 EGFR activating mutation and are TKI-sensitive, and H1975 cells have the L858R EGFR activating mutation and are TKI-resistant due to a T790M mutation.

In the next experiment the test system is H1975 cells. Briefly: Autophagy (GFP-LC3 puncta, LC3-II, p62) in H1975 NSCLC cells. The experiment is classed as cell-based, human. The source says:
(§3) To evaluate whether EGFR activation inhibits autophagy, we used a human non-small cell lung carcinoma (NSCLC) cell line, A549, that express wild-type (WT) EGFR (VanMeter et al., 2008). We measured autophagy by examining the subcellular localization of a green fluorescent autophagy reporter protein, GFP-LC3, and by measuring levels of LC3-II, the autophagosome-associated lipidated form of LC3, and p62, an autophagic substrate (Mizushima et al., 2010).
We investigated whether this mechanism underlies EGFR regulation of autophagy in NSCLC cells with activating mutations in EGFR. We used two NSCLC lines: HCC827 cells have the Δ746-750 EGFR activating mutation and are TKI-sensitive, and H1975 cells have the L858R EGFR activating mutation and are TKI-resistant due to a T790M mutation. First, we evaluated if TKI treatment induces autophagy; […]. Thus, TKI therapy disrupts the EGFR/Beclin 1 complex and induces autophagy in TKI-sensitive but not TKI-resistant cells.

Experiment [3] concerns EGFR Δ746-750 (HCC827 cells).
From the text: as §2

The subject of experiment [4] is EGFR L858R/T790M (H1975 cells). Briefly: EGFR signalling, Beclin 1 interactome and Beclin 1 tyrosine phosphorylation in H1975 cells. The experiment is classed as cell-based, human.
From the text: as §2

The next experiment relates to HCC827 xenografts. Description: HCC827 tumor xenografts under TKI therapy. The experiment is classed as in vivo. To be noted: control mice without induction or with induced WT Beclin 1.
From the text: as §2

Experiment [5] concerns MCF7 human breast carcinoma cells. Briefly: Basal autophagy (GFP-LC3) in transfected MCF7 cells. The experiment is classed as cell-based. To be noted: lesser extent with Beclin 1 AA than with wild-type Beclin 1. An excerpt:
We transfected MCF7 human breast carcinoma cells [which express low amounts of endogenous Beclin 1 (14)] with GFP-LC3 and wild-type Beclin 1 or Beclin 1 S295A or AA mutants. […] Thus, Akt inhibits basal autophagy both through Beclin 1 phosphorylation-dependent and independent mechanisms.

Experiment [6] concerns A549 cells (wild-type EGFR). Briefly: Autophagy in serum-starved A549 cells. The experiment is classed as cell-based, human. To be noted: addition for 30 min.
From the text: as §3

Data on seven compounds can be found in patent publication US9671412B2, “Beclin 1 phosphorylation” (Board of Regents, The University of Texas System, priority 2012, dated 2017).

Entries after “also recorded” stand apart in the source; their conditions may differ.

As for `CCC(=O)N1CCN(c2ccc(-n3c(=O)ccc4cnc5ccc(-c6cnc7ccccc7c6)cc5c43)cc2C(F)(F)F)CC1` [Torin1], the “amounts of phospho-4E-BP1” value in the experiment on mTOR was “decreased”. In addition, in the experiment with HeLa cells, the autophagy result is recorded as “induced autophagy”. In experiment [1], the “myr-Akt1-driven phosphorylation of endogenous Beclin 1 S295 and S234” value was “not reversed”.
On to `CCN(CC)CCCCN1c2ccccc2Oc2ccc(Cl)cc21` [Akt inhibitor X], for which, on GST-Akt1, the “GST-Akt1 phosphorylation of Beclin 1 S295 in vitro” value is “partially blocked”.
For the compound “Beclin 1: wild-type human Beclin 1, essential autophagy and tumor suppressor protein; expressed in cells”, in [2], the “mean mitotic counts of tumors” value stood at 8.37.
Turning to `C#Cc1cccc(Nc2ncnc3cc(OCCOC)c(OCCOC)cc23)c1` [erlotinib], the “LC3-II conversion and p62 degradation” value was “demonstrated LC3-II conversion and p62 degradation” with HCC827 cells (HCC827 cells); “not” with H1975 cells (H1975 cells). For the same compound, the GFP-LC3 puncta entry in the experiment with HCC827 cells (HCC827 cells stably transfected with GFP-LC3) was “increased GFP-LC3 puncta in a dose-dependent manner”; in the experiment on H1975 cells (H1975 cells stably transfected with GFP-LC3), “not”. The “Beclin 1/EGFR interaction” value in experiment [3] is recorded as “blocked; also recorded: disruption of EGFR/Beclin 1 binding”; in experiment [4], “not”. For the same compound, in experiment [3], the “Beclin 1 tyrosine phosphorylation” value is recorded as “decreased”. The EGFR phosphorylation result in experiment [3] is recorded as “EGFR dephosphorylation”. The “endogenous Beclin 1 Y233 phosphorylation” value in experiment [3] (phosphospecific antibody) is given as “blocked”; in [4] (phosphospecific antibody) it was “not”. For the same compound, the “time to complete regression of all tumor xenografts” value in the experiment on HCC827 xenografts was ≤ 14 days.
Turning to `NC1(c2ccc(-c3nc4ccn5c(=O)[nH]nc5c4cc3-c3ccccc3)cc2)CCC1` [MK-2206], the “GST-Akt1 phosphorylation of Beclin 1 S295 in vitro” value at GST-Akt1 was “partially blocked”. Besides, the basal autophagy result in [5] was “increased basal autophagy”.
For the compound “Beclin 1 AA: Beclin 1 double mutation S234A/S295A, cannot be phosphorylated by Akt; expressed in cells”, in [2], the “mean mitotic counts of tumors” value stood at 3.67 and the “tumors displaying degenerative features with numerous pyknotic nuclei” value is on record as 60%.
On to “epidermal growth factor [EGF, growth factor ligand that triggers EGFR signaling]”, for which the “autophagy induced by serum depletion” value in experiment [6] is “partially reversed autophagy induction”.
